Holding throughout (assay): growth of human tumour cells (NCI), 48 h
Test [1] concerns MDA-MB-435.
Test [2] relates to MOLT-4 leukemia.
The test system of test [3] is SF-295 CNS.
The test system of test [4] is HCC-2998 colon.
The subject of test [5] is HCT-116 colon.
The subject of test [6] is LOX IMVI melanoma.
Test [7] concerns CAKI-1 renal.
In test [8] the test system is SNB-75 CNS.
In test [9] the test system is SK-MEL-5 melanoma.
Test [10] concerns NCI/ADR-RES ovarian.
Test [11] relates to NCI-H226 lung.

Each structure is given as a SMILES string.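 Protocol summary: plate cells (96-well), add compound at 5 concentrations, incubate 48 h, interpolate endpoints linearly. At the TGI there is no net growth.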

`CC(=O)Nc1nnc(S(=O)(=O)NC(=S)Nc2ccc(Cl)cc2)s1`: the TGI in test [1], in [2], in test [3], in test [4], in [5] and in test [6] was over 100 µM throughout. For the same molecule, the TGI in [7], in [8], in test [9] and in [10] was over 100 µM in each case.

For `NCCCCCNOCCCN`, the TGI in test [1], in [2], in [11], in test [3], in test [4] and in test [5] was over 100 µM each time. In addition, the TGI in test [6], in test [8], in test [9] and in test [10] was over 100 µM each time.

On to `Cc1ccc(-n2cc(-c3ccc(Cl)cc3)c(C#N)c2N)cc1`, for which the TGI in test [1] is 32.7 µM; in [11] it was 31.7 µM; in [3] it was 33.8 µM; in test [4], 28.4 µM; in test [5], 27.1 µM; in test [6], 29.8 µM. The TGI in test [7] is 45.3 µM; in test [8] it was 47.9 µM; in test [9], 29.7 µM; in test [10] it was 39.1 µM.

On to `COC1C(OC(N)=O)C(O)C(Oc2ccc3c(O)c(NC(=O)c4ccc(O)c(CC=C(C)C)c4)c(=O)oc3c2C)OC1(C)C` (configuration not stated), for which the TGI in test [1], in [2], in test [4], in test [5], in [7] and in [8] was over 100 µM in each case. For the same molecule, the TGI in test [9] and in test [10] was over 100 µM throughout.

In the case of `Cc1cn2c(/C=C3/C(=O)Nc4ccccc43)c(C)nc2s1`, the TGI in [1] was 0.619 µM; in [2], 15.2 µM; in [3], over 100 µM; in [4], 19.5 µM; in [5], 15.5 µM; in test [6], 70.4 µM. Besides, the TGI in test [7] was over 100 µM; in test [8], over 100 µM; in test [9], 14.6 µM; in test [10], over 100 µM.

For the molecule `O=C(O)CO/N=C1/C(c2c(O)[nH]c3ccccc23)=Nc2ccccc21`, the TGI in [1], in test [2], in [3], in [4], in test [5] and in test [6] was over 100 µM throughout. Also, the TGI in test [7] was over 100 µM; in [8] it was 74.4 µM; in [9] it was 80 µM; in test [10], over 100 µM.

Turning to `Cc1ccc(N2C(=O)C(=O)N(/N=C3\C(=O)Nc4ccccc43)C2=S)cc1`, the TGI in test [1], in test [2], in test [3], in test [4], in [5] and in [6] was over 100 µM throughout. In addition, the TGI in test [7], in test [8], in test [9] and in [10] was over 100 µM in each case.

`COc1nc(C)nc2c1ncn2Cc1ccccc1`: the TGI in [1], in test [11], in [3], in test [4], in [5] and in [6] was over 100 µM in each case. The TGI in test [7], in test [8], in [9] and in test [10] was over 100 µM each time.

As to `CNc1ncnc2c1cnn2Cc1cn(CCCCO)nn1`, the TGI in test [1], in test [2], in [11], in test [3], in test [4] and in [5] was over 100 µM each time. For the same molecule, the TGI in [6], in test [7], in test [9] and in [10] was over 100 µM in each case.

Consider `Cn1nc(C(=O)N2CC(CCl)c3c2cc([N+](=O)[O-])c2ccccc32)cc1NC(=O)Nc1cc(C(=O)N2CC(CCl)c3c2cc([N+](=O)[O-])c2ccccc32)nn1C` (configuration not stated), for which the TGI in test [1], in test [2], in test [11], in test [3], in test [4] and in test [5] was over 100 µM in each case. Moreover, the TGI in test [7], in test [8], in test [9] and in test [10] was over 100 µM each time.

Regarding `Cc1ccc(Nc2cn(COCc3ccccc3)c(=O)[nH]c2=O)cc1`, the TGI in [1], in test [2], in test [11], in test [3], in test [4] and in [5] was over 100 µM each time. The TGI in test [6], in [7], in [9] and in test [10] was over 100 µM in each case.

Turning to `CC(=O)Oc1cc(S(=O)(=O)Nc2n[nH]c(N)n2)c(S)cc1Cl`, the TGI in test [1], in [2], in test [3], in test [4], in [5] and in test [6] was over 100 µM throughout. The TGI in [7], in test [9] and in [10] was over 100 µM in each case.

For the molecule `C=C(CC)C[C@@H]1C[C@]2(C(=O)OC)c3[nH]c4ccccc4c3CCN2C1=O`, the TGI in test [1] was 43.7 µM; in test [2], over 100 µM; in [3] it was 31.1 µM; in [4], 34.1 µM; in [5], 29.6 µM; in test [6] it was 33.5 µM. Also, the TGI in test [7] amounted to 48.6 µM; in test [8], 66.2 µM; in [9], 31.3 µM; in [10], 51.1 µM.
